Experimental data reported in patent publication US20230122991A1, “GROWTH FACTOR FORMULATION FOR CONDITION ASSOCIATED WITH OTIC EVENT” (OTONOMY, INC., priority 2020, published 2023).

B1: neurotrophin-3 (protein, UniProt P20783 139-257, looked up)
Neurotrophin-3: YAEHKSHRGEYSVCDSESLWVTDKSSAIDIRGHQVTVLGEIKTGNSPVKQYFYETRCKEARPVKNGCRGIDDKHWNSQCKTSQTYVRALTSENNKLVGWRWIRIDTSCVCALSRKIGRT
modifications: Neurotrophin-3

Assays:
[1] = test system: Spiral ganglion neurons (SGNs); test: Survival of spiral ganglion neurons (Example C); format: cell-based, rat; conditions: 1 μM; compared to a vehicle-only control, 0.01% DMSO; FIG. 6C
Experimental: Spiral ganglion neurons (SGNs) were harvested from P1-P3 rates, dissociated, and cultured in 96-well plates. The SGNs were treated with neurotrophins and/or antibodies at various concentrations. After about 24 hours, media was exchanged to serum-free media and the neurotrophins and/or antibodies were replenished. Cells were cultured for an additional 48-72 hours before being fixed using 4% paraformaldehyde (PFA) and stained using 4′,6-diamidino-2-phenylindole (DAPI). […] Surviving neurons were identified as cells with intact soma and at least one neurite.

SGNs = test: SGN complexity, dissociated SGNs (Example D); format: cell-based, rat; conditions: differences upon treatment, FIG. 7D
Excerpt: SGNs were immunostained, imaged, and batch analyzed with PerkinElmer Harmony 4.6 software. Changes in the complexities of SGNs upon treatment with various agents were examined. […] All of the images in a single well were stitched together and analyzed. SGN somas are shown in the upper right panel and SGN neurites are shown in the lower left panel. As shown in the lower right panel, each neurite tree is assigned to a single cell for analysis. Depending on the stitching, occasionally neurites will not meet the criteria due to gaps that exceed a user-defined threshold.

Molecule	Survival of SGNs [1]	total neurite length, total number of extremities, segments, and nodes per cell (SGNs)
OCCN(CCO)c1ccc(C(c2ccc(Cl)cc2)c2ccc(N(CCO)CCO)cc2)cc1 [LM22b10]	not improved	
B1		not statistically significant
